Data published in patent US12625142B2, “Assay for measuring binding affinity for cardiolipin of biologically active compounds” (Latvian Institute of Organic Synthesis, priority 2020, dated 2026).
Counter-ions that a name gives are not always drawn.

Assay: competition binding assay for cardiolipin with fluorescent probe I and CL-DOPC liposomes (25:75 mol %)
Conditions: for EC50: 20 mM HEPES buffer, 2.5 μM CL, 5 μM I, means ± S.D. from 3 independent experiments; for relative binding affinity for CL within the studied set (in words): comparison of EC50 values; for EC50 range (in words): pH 7.4 and 6.8; for effect of pH change on interaction with CL: pH 7.4 versus 6.8
Experimental: Lipid vesicles may be composed of CL and a helper phospholipid (preferentially a phosphatidylcholine) or may have a more complex composition with several phospholipids, provided that the formulation is stable in the used medium. […] [18]
Final concentration of the fluorescent probe I may range from 0.2 μM to 25 μM. Optimal incubation temperature is 37° C. because it represents physiological temperature and allows shortening of the incubation time.
A fluorimeter is required that is capable of scanning emission intensity at a desired wavelength, as well as a plate shaker-thermostat. Assay is carried out in 96-well microplates for fluorescence-based assays. […]
Also place a triplicate of CL containing lipid vesicles without a ligand (vehicle); • 3. Place the 96-well microplate in a plate shaker-thermostat for 10 min (500 RPM, 37° C.). • 4. Add appropriate amount of I stock solution (I final concentration 5 μM) to the wells, including wells containing vehicle, and mix gently with a micro pipette by sucking the solution gently up and down (approximately 5 times); • 5. Incubate for 15 min in a plate shaker-thermostat (500 RPM, 37° C.); • 6. Measure fluorescence intensity at an excitation and emission wavelength of 497 and 529 nm, respectively; • 7. […] Plot the normalized fluorescence intensity against the concentration of the ligand on a logarithmic scale; • 9. Fit the titration curve with a suitable fitting model to calculate EC50 values.

| Compound | EC50 (pH = 7.4) [µM] | EC50 (pH = 6.8) [µM] | also measured |
| --- | --- | --- | --- |
| [Cl-].[Cl-].[Mg+2] [Example 4, Magnesium chloride] | 1930 ± 20.5 | – | – |
| COc1cccc2c1C(=O)c1c(O)c3c(c(O)c1C2=O)C[C@@](O)(C(C)=O)C[C@@H]3O[C@H]1C[C@H](N)[C@H](O)[C@H](C)O1 [Example 6, (8S,10S)-8-acetyl-10-(((2R,4S,5S,6S)-4-amino-5-hydroxy-6-methyltetrahydro-2H-pyran-2-yl)oxy)-6,8,11-trihydroxy-1-methoxy-7,8,9,10-tetrahydrotetracene-5,12-dione hydrochloride] | 4.35 ± 1.25 | – | – |
| [Ca+2].[Cl-].[Cl-] [Example 3, Calcium chloride] | 1334 ± 10.1 | 1290 ± 130 | lower EC50 than Mg^2+ (pH 7.4, 20 mM HEPES, FIG. 1B): ≈ 30% |
| NC[C@H]1O[C@H](O[C@H]2[C@H](O)[C@@H](O[C@H]3O[C@H](CO)[C@@H](O)[C@H](N)[C@H]3O)[C@H](N)C[C@@H]2N)[C@H](N)C[C@@H]1O [Example 12, (2S,3R,4S,5S,6R)-4-amino-2-{[(1S,2S,3R,4S,6R)-4,6-diamino-3-{[(2R,3R,5S,6R)-3-amino-6-(aminomethyl)-5-hydroxyoxan-2-yl]oxy}-2-hydroxycyclohexyl]oxy}-6-(hydroxymethyl)oxane-3,5-diol] | 4.37 ± 0.32 | – | – |
| Cytochrome c [Example 1] | 0.32 ± 0.06 | 0.28 ± 0.02 | relative binding affinity for CL within the studied set (in words) (20 mM HEPES): the highest binding affinity for CL |
| (2R,3R,4S,5S,6S)-5-amino (((2R,3S,4R,4aR,6S,7R,8aS)-7-amino-6-(((1R,2R,3S,4R,6S)-4,6-diamino-2,3-dihydroxycyclohexyl)oxy)-4-hydroxy-3-(methylamino)octahydropyrano[3,2-b]pyran-2-yl)oxy)-6-(hydroxymethyl)tetrahydro-2H-pyran-3,4-diol sulfate [Example 9] | 3.34 ± 0.95 | – | – |
| [H]/N=C(/N)N[C@H]1[C@H](O)[C@@H](O)[C@H](O[C@@H]2O[C@@H](C)[C@](O)(C=O)[C@H]2O[C@@H]2O[C@@H](CO)[C@H](O)[C@@H](O)[C@@H]2NC)[C@@H](N/C(N)=N\[H])[C@@H]1O [Example 10, 2-[(1R,2R,3S,4R,5R,6S)-3-(diaminomethyldeneamino)-4-[(2R,3R,4R,5S)-3-[(2S,3S,4S,5R,6S)-4,5-dihydroxy-6-(hydroxymethyl)-3-(methylamino)oxan-2-yl]oxy-4-formyl-4-hydroxy-5-methyloxolan-2-yl]oxy-2,5,6-trihydroxycyclohexyl]guanidine] | 9.82 ± 1.76 | – | relative binding affinity for CL within the studied set (in words) (20 mM HEPES, listed as streptomycin): lowest affinity for CL |
| COc1cccc2c1C(=O)c1c(O)c3c(c(O)c1C2=O)C[C@@](O)(C(=O)CO)C[C@@H]3O[C@H]1C[C@H](N)[C@@H](O)[C@H](C)O1 [Example 5, (8S,10S)-10-(((2R,4S,5R,6S)-4-amino-5-hydroxy-6-methyltetrahydro-2H-pyran-2-yl)oxy)-6,8,11-trihydroxy-8-(2-hydroxyacetyl)-1-methoxy-7,8,9,10-tetrahydrotetracene-5,12-dione hydrochloride] | 6.94 ± 0.9 | 5.86 ± 0.25 | – |
| CCCCCCCCC[P+](c1ccccc1)(c1ccccc1)c1ccccc1.[Br-] [Example 13, Nonyltriphenylphosphonium bromide] | 19.8 ± 0.75 | 36.6 ± 2.93 | EC50 range (in words) (20 mM HEPES): micromolar range; relative binding affinity for CL within the studied set (in words) (20 mM HEPES): lower affinities than studied aminoglycosides or anthracyclines; affinity for CL higher than that of dodecyltrimethylammonium chloride (pH 7.4, 20 mM HEPES, FIG. 2A): ≈ 30%; effect of pH change on interaction with CL: affected by changes of pH |
| Cl.N [Example 2, Ammonium chloride] | 31853 ± 2.3 | – | fold lower affinity for CL than Ca^2+ ions (pH 7.4, 20 mM HEPES, FIG. 1B): 23 fold |
| CCCCCCCCCCCC[N+](C)(C)C.[Cl-] [Example 14, Dodecyltrimethylammonium chloride] | 30.7 ± 2.75 | 74.4 ± 8.47 | EC50 range (in words) (20 mM HEPES): micromolar range; relative binding affinity for CL within the studied set (in words) (20 mM HEPES): lower affinities than studied aminoglycosides or anthracyclines; effect of pH change on interaction with CL: affected by changes of pH |
